From PubChem BioAssay AID256 (DTP/NCI, 2004)
Several values for one entry are separate records, joined by “and”; a condition that tells them apart may be missing. Equal entries are not always repeated. Toxic doses and inconclusive results are not listed. Rule for the calls: active = survival T/C of 150% or more; inactive = T/C below 125% in these data.

Test system: CD2F1 mice, L1210 leukemia ip, survival T/C
Assay: NCI In Vivo Anticancer Drug Screen. Data for tumor model L1210 Leukemia (intraperitoneal) in CD2F1 (CDF1) mice
Conditions: higher = longer survival
In short: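 Vehicle-treated tumor-bearing mice served as controls (C) for compound-treated mice (T). Reported figure is T divided by C.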

[1] = endpoint: mean survival time, dose: 100.0 mg/kg/injection, schedule: Q04DX002 (ip), vehicle: saline with Tween-80
[2] = endpoint: mean survival time, dose: 200.0 mg/kg/injection, schedule: Q04DX002 (ip), vehicle: saline with Tween-80
[3] = endpoint: mean survival time, dose: 400.0 mg/kg/injection, schedule: Q04DX002 (ip), vehicle: saline with Tween-80
[4] = endpoint: mean survival time, dose: 100.0 mg/kg/injection, schedule: Q04DX003 (ip), vehicle: saline with Tween-80
[5] = endpoint: mean survival time, dose: 200.0 mg/kg/injection, schedule: Q04DX003 (ip), vehicle: saline with Tween-80
[6] = endpoint: mean survival time, dose: 400.0 mg/kg/injection, schedule: Q04DX003 (ip), vehicle: saline with Tween-80
[7] = endpoint: mean survival time, dose: 100.0 mg/kg/injection, schedule: Q01DX001 (ip), vehicle: saline
[8] = endpoint: mean survival time, dose: 200.0 mg/kg/injection, schedule: Q01DX001 (ip), vehicle: saline
[9] = endpoint: mean survival time, dose: 400.0 mg/kg/injection, schedule: Q01DX001 (ip), vehicle: saline
[10] = endpoint: mean survival time, dose: 100.0 mg/kg/injection, schedule: Q01DX001 (ip), vehicle: saline with Tween-80
[11] = endpoint: mean survival time, dose: 200.0 mg/kg/injection, schedule: Q01DX001 (ip), vehicle: saline with Tween-80
[12] = endpoint: mean survival time, dose: 400.0 mg/kg/injection, schedule: Q01DX001 (ip), vehicle: saline with Tween-80
[13] = endpoint: mean survival time, dose: 100.0 mg/kg/injection, schedule: Q01DX009 (ip), vehicle: saline with Tween-80
[14] = endpoint: mean survival time, dose: 200.0 mg/kg/injection, schedule: Q01DX009 (ip), vehicle: saline with Tween-80
[15] = endpoint: mean survival time, dose: 400.0 mg/kg/injection, schedule: Q01DX009 (ip), vehicle: saline with Tween-80
[16] = endpoint: mean survival time, dose: 50.0 mg/kg/injection, schedule: Q04DX002 (ip), vehicle: saline with Tween-80
[17] = endpoint: mean survival time, dose: 100.0 mg/kg/injection, schedule: Q04DX003 (ip), vehicle: saline
[18] = endpoint: mean survival time, dose: 200.0 mg/kg/injection, schedule: Q04DX003 (ip), vehicle: saline
[19] = endpoint: mean survival time, dose: 400.0 mg/kg/injection, schedule: Q04DX003 (ip), vehicle: saline

Measured: T/C

CC(C)=N/N=C(N)/C(N)=N/N=C(C)C
inactive: [1] 103 % of control | [2] 106 % of control | [3] 95 % of control

CS(=O)(=O)c1ccc(NN)c([N+](=O)[O-])c1
inactive: [4] 98 % of control | [5] 98 % of control | [6] 102 % of control

C[C@]12CC[C@@H]3c4ccc(O)cc4CC[C@H]3[C@@H]1CC[C@@H]2O
inactive: endpoint: mean survival time, dose: 6.25 mg/kg/injection, schedule: Q01DX009 (ip), vehicle: Klucel (hydroxypropylcellulose) (HPC) 94 % of control | endpoint: mean survival time, dose: 12.5 mg/kg/injection, schedule: Q01DX009 (ip), vehicle: Klucel (hydroxypropylcellulose) (HPC) 100 % of control | endpoint: mean survival time, dose: 25.0 mg/kg/injection, schedule: Q01DX009 (ip), vehicle: Klucel (hydroxypropylcellulose) (HPC) 97 % of control | endpoint: mean survival time, dose: 50.0 mg/kg/injection, schedule: Q01DX009 (ip), vehicle: Klucel (hydroxypropylcellulose) (HPC) 96 % of control | endpoint: mean survival time, dose: 100.0 mg/kg/injection, schedule: Q01DX009 (ip), vehicle: Klucel (hydroxypropylcellulose) (HPC) 105 % of control | endpoint: mean survival time, dose: 200.0 mg/kg/injection, schedule: Q01DX009 (ip), vehicle: Klucel (hydroxypropylcellulose) (HPC) 96 % of control

O=C1C=C(Cl)C(=O)N1c1cccc(Cl)c1
inactive: endpoint: mean survival time, dose: 6.25 mg/kg/injection, schedule: Q04DX003 (ip), vehicle: saline with Tween-80 104 % of control | endpoint: mean survival time, dose: 12.5 mg/kg/injection, schedule: Q04DX003 (ip), vehicle: saline with Tween-80 95 % of control | endpoint: mean survival time, dose: 25.0 mg/kg/injection, schedule: Q04DX003 (ip), vehicle: saline with Tween-80 95 % of control

CCCCOc1c(OCCCC)c(=O)c1=O
inactive: [7] 108 % of control | endpoint: mean survival time, dose: 178.0 mg/kg/injection, schedule: Q01DX001 (ip), vehicle: saline 102 % of control | [8] 108 % of control | endpoint: mean survival time, dose: 267.0 mg/kg/injection, schedule: Q01DX001 (ip), vehicle: saline 96 % of control | [9] 106 % of control | endpoint: mean survival time, dose: 600.0 mg/kg/injection, schedule: Q01DX001 (ip), vehicle: saline 98 % of control

CC(C)(C)NCC(CN(CC(CNC(C)(C)C)C(=O)c1ccccc1)C(C)(C)C)C(=O)c1ccccc1 (stereo not drawn)
inactive: endpoint: mean survival time, dose: 12.5 mg/kg/injection, schedule: Q04DX003 (ip), vehicle: Klucel (hydroxypropylcellulose) (HPC) 98 % of control | endpoint: mean survival time, dose: 25.0 mg/kg/injection, schedule: Q04DX003 (ip), vehicle: Klucel (hydroxypropylcellulose) (HPC) 96 % of control | endpoint: mean survival time, dose: 50.0 mg/kg/injection, schedule: Q04DX003 (ip), vehicle: Klucel (hydroxypropylcellulose) (HPC) 102 % of control

CN(C)CCSc1nnc(N)s1
inactive: [8] 100 % of control

CCNCCNc1ccc(NCCNCC)c2c1C(=O)c1ccccc1C2=O
inactive: endpoint: mean survival time, dose: 2.0 mg/kg/injection, schedule: Q01DX009 (ip), vehicle: acid diluted with saline 122 % of control | endpoint: mean survival time, dose: 4.0 mg/kg/injection, schedule: Q01DX009 (ip), vehicle: acid diluted with saline 122 % of control and 123 % of control

OC(CF)CF
inactive: endpoint: mean survival time, dose: 12.5 mg/kg/injection, schedule: Q01DX009 (ip), vehicle: saline 106 % of control | endpoint: mean survival time, dose: 25.0 mg/kg/injection, schedule: Q01DX009 (ip), vehicle: saline 118 % of control

O=P(c1ccccc1)(c1ccccc1)P(=O)(c1ccccc1)c1ccccc1
inactive: [10] 90 % of control | [11] 90 % of control | [12] 96 % of control

COC(=O)c1ccc([N+](=O)[O-])cc1O
inactive: [13] 105 % of control | [14] 102 % of control | [15] 97 % of control

O=C(O)CC/C(=N\O)c1cccc([N+](=O)[O-])c1
inactive: [4] 102 % of control | [5] 102 % of control | [6] 98 % of control

CC1(C)OC2C(/C=N/O)OC(n3ccc(=O)[nH]c3=O)C2O1 (stereo not drawn)
inactive: endpoint: median survival time, dose: 23.13 mg/kg/injection, schedule: Q01DX005 (ip), vehicle: Klucel (hydroxypropylcellulose) (HPC) 107 % of control | endpoint: median survival time, dose: 46.25 mg/kg/injection, schedule: Q01DX005 (ip), vehicle: Klucel (hydroxypropylcellulose) (HPC) 102 % of control | endpoint: median survival time, dose: 92.5 mg/kg/injection, schedule: Q01DX005 (ip), vehicle: Klucel (hydroxypropylcellulose) (HPC) 102 % of control | endpoint: median survival time, dose: 185.0 mg/kg/injection, schedule: Q01DX005 (ip), vehicle: Klucel (hydroxypropylcellulose) (HPC) 108 % of control

CC(C)=CCC(O)C1=CC(=O)c2c(O)ccc(O)c2C1=O (stereo not drawn)
inactive: endpoint: mean survival time, dose: 7.5 mg/kg/injection, schedule: Q04DX003 (ip), vehicle: saline sonified 98 % of control | endpoint: mean survival time, dose: 15.0 mg/kg/injection, schedule: Q04DX003 (ip), vehicle: saline sonified 102 % of control | endpoint: mean survival time, dose: 30.0 mg/kg/injection, schedule: Q04DX003 (ip), vehicle: saline sonified 101 % of control

c1ccc(-c2oc(-c3ccccc3)c3c(-c4ccccc4)cccc23)cc1
inactive: [16] 90 % of control | [1] 87 % of control | [2] 87 % of control

CCN(CC)Cc1cccc(Nc2cc(C)nc(/N=C(\N)Nc3ccc(Cl)c(Cl)c3)n2)c1
inactive: endpoint: mean survival time, dose: 9.5 mg/kg/injection, schedule: Q01DX001 (ip), vehicle: other 102 % of control | endpoint: mean survival time, dose: 19.0 mg/kg/injection, schedule: Q01DX001 (ip), vehicle: other 96 % of control | endpoint: mean survival time, dose: 38.0 mg/kg/injection, schedule: Q01DX001 (ip), vehicle: other 95 % of control

Cc1ccccc1N1OS(=O)(=O)CC1(C#N)c1ccccc1 (stereo not drawn)
inactive: [7] 106 % of control | [17] 98 % of control | [8] 100 % of control | [18] 101 % of control | [9] 102 % of control | [19] 96 % of control

CN(C)c1ccc(C=NCCCN=Cc2ccc(N(C)C)cc2)cc1
inactive: [13] 96 % of control | [4] 95 % of control | [14] 90 % of control | [5] 107 % of control | [15] 93 % of control | [6] 86 % of control

O=C(NC(=S)Nc1cccc2ccccc12)c1cccc(Br)c1
inactive: [16] 89 % of control and 98 % of control | [10] 96 % of control | [13] 98 % of control and 104 % of control | [4] 96 % of control | [11] 95 % of control | [14] 96 % of control and 98 % of control | [5] 100 % of control | [12] 95 % of control | [15] 102 % of control and 106 % of control | [3] 90 % of control and 95 % of control | [6] 96 % of control

c1cc[c]([Ge]([c]2ccccc2)([c]2ccccc2)[c]2ccccc2)cc1
inactive: [17] 86 % of control | [18] 86 % of control | [19] 91 % of control

CN(/N=C/c1ccccc1)C(=S)Nc1ccccc1
inactive: endpoint: mean survival time, dose: 31.25 mg/kg/injection, schedule: Q04DX003 (ip), vehicle: Klucel (hydroxypropylcellulose) (HPC) 101 % of control | endpoint: mean survival time, dose: 62.5 mg/kg/injection, schedule: Q04DX003 (ip), vehicle: Klucel (hydroxypropylcellulose) (HPC) 103 % of control | endpoint: mean survival time, dose: 125.0 mg/kg/injection, schedule: Q04DX003 (ip), vehicle: Klucel (hydroxypropylcellulose) (HPC) 100 % of control

CCN(CC)c1nc2c(c(=O)n(C)c(=O)n2C)n1CCCNCC(O)c1ccc(O)c(O)c1 (stereo not drawn)
inactive: endpoint: mean survival time, dose: 12.5 mg/kg/injection, schedule: Q01DX005 (ip), vehicle: distilled water + Tween-80 96 % of control | endpoint: mean survival time, dose: 25.0 mg/kg/injection, schedule: Q01DX005 (ip), vehicle: distilled water + Tween-80 103 % of control | endpoint: mean survival time, dose: 50.0 mg/kg/injection, schedule: Q01DX005 (ip), vehicle: distilled water + Tween-80 97 % of control | endpoint: mean survival time, dose: 100.0 mg/kg/injection, schedule: Q01DX005 (ip), vehicle: distilled water + Tween-80 105 % of control | endpoint: mean survival time, dose: 200.0 mg/kg/injection, schedule: Q01DX005 (ip), vehicle: distilled water + Tween-80 100 % of control

CCCCCCCCCCCCCCCCOc1ccc(OCCCCCCCCC)cc1
inactive: [12] 86 % of control

COC(=O)C12C=CC(C1)n1c(=O)n(-c3ccccc3)c(=O)n12 (stereo not drawn)
inactive: [13] 98 % of control | [14] 104 % of control | [15] 96 % of control

CC(C)(C)CC(C)(C)c1ccc(OCCOc2ccccc2NC(=O)c2ccc3ccccc3c2O)cc1
inactive: [13] 94 % of control | [14] 93 % of control | [15] 94 % of control

C[Si](C)(C)C1CCC2C3C=CC(C3)C21 (stereo not drawn)
inactive: endpoint: mean survival time, dose: 100.0 mg/kg/injection, schedule: Q04DX003 (ip), vehicle: alcohol 107 % of control | endpoint: mean survival time, dose: 200.0 mg/kg/injection, schedule: Q04DX003 (ip), vehicle: alcohol 96 % of control | endpoint: mean survival time, dose: 400.0 mg/kg/injection, schedule: Q04DX003 (ip), vehicle: alcohol 96 % of control

c1ccc2c(c1)-c1nc3ccccc3cc1CC21CCCC1
inactive: [10] 98 % of control | [11] 98 % of control | [12] 93 % of control
